Laboratory results taken from the supplement of paper PMC12513837.
± gives the standard deviation of the averaged measurements.

Compound: CC(=O)N1CCc2c(c(N3CCCc4cc(-c5cnn(C)c5)c(C(F)F)cc43)nn2C2CCC(CN3CCN(c4ccc5c(c4)C(=O)N(C4CCC(=O)NC4=O)C5=O)CC3)CC2)C1 [CBPD-409]
Experiment: AUC of viability dose-response curve (relative to vehicle, 8 doses up to 10 µM) (fraction); higher = less sensitive (more viable); extreme values may be limits of the assay
Experimental: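 PRISM multiplexed pooled barcoded cell line viability screen at the Broad Institute, 887 cancer cell lines treated with CBPD-409 (p300/CBP PROTAC degrader) at 8 concentrations in threefold dilution, top dose 10 µM. The read-out is the area under the dose-response curve of relative viability versus vehicle (n=3). AUC < 0.3 is called strongly sensitive and AUC > 0.8 resistant.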

Row | Test System | AUC of viability dose-response curve
1 | SKES1_BONE | 0.286 ± 0.11
2 | SKGII_ENDOMETRIUM | 0.894
3 | SKGI_ENDOMETRIUM | 1
4 | SKGT2_STOMACH | 0.887
5 | SKGT4_OESOPHAGUS | 0.575
6 | SKHEP1_LIVER | 1
7 | SKLMS1_SOFT_TISSUE | 0.829
8 | SKLU1_LUNG | 0.753
9 | SKM1_HAEMATOPOIETIC_AND_LYMPHOID_TISSUE | 1
10 | SKMEL2_SKIN | 1
11 | SKMEL3_SKIN | 0.818
12 | SKMEL5_SKIN | 0.506
13 | SKMEL24_SKIN | 1
14 | SKMEL28_SKIN | 0.575
15 | SKMEL30_SKIN | 0.703
16 | SKMES1_LUNG | 0.848
17 | SKNAS_AUTONOMIC_GANGLIA | 1
18 | SKNBE2_AUTONOMIC_GANGLIA | 0.539 ± 0.23
19 | SKNDZ_AUTONOMIC_GANGLIA | 0.267
20 | SKNFI_AUTONOMIC_GANGLIA | 0.854
21 | SKNMC_BONE | 0.996
22 | SKNO1_HAEMATOPOIETIC_AND_LYMPHOID_TISSUE | 0.247
23 | SKN_ENDOMETRIUM | 0.778
24 | SKOV3_OVARY | 1

Row | Test System | AUC of viability dose-response curve
25 | SKPNDW_BONE | 1
26 | SKUT1_SOFT_TISSUE | 0.609
27 | SMSCTR_SOFT_TISSUE | 0.847
28 | SNB75_CENTRAL_NERVOUS_SYSTEM | 1
29 | SNGM_ENDOMETRIUM | 0.527
30 | SNU1_STOMACH | 1
31 | SNU46_UPPER_AERODIGESTIVE_TRACT | 0.547
32 | SNU61_LARGE_INTESTINE | 0.875
33 | SNU81_LARGE_INTESTINE | 0.767
34 | SNU119_OVARY | 1
35 | SNU182_LIVER | 0.274
36 | SNU201_CENTRAL_NERVOUS_SYSTEM | 0.382
37 | SNU213_PANCREAS | 0.933
38 | SNU216_STOMACH | 1
39 | SNU245_BILIARY_TRACT | 0.719
40 | SNU308_BILIARY_TRACT | 0.95
41 | SNU398_LIVER | 0.849
42 | SNU407_LARGE_INTESTINE | 0.502
43 | SNU410_PANCREAS | 1
44 | SNU423_LIVER | 0.751
45 | SNU449_LIVER | 0.947
46 | SNU466_CENTRAL_NERVOUS_SYSTEM | 0.909
47 | SNU478_BILIARY_TRACT | 0.861
48 | SNU489_CENTRAL_NERVOUS_SYSTEM | 1

Row | Test System | AUC of viability dose-response curve
49 | SNU601_STOMACH | 0.563
50 | SNU638_STOMACH | 0.48
51 | SNU668_STOMACH | 0.999
52 | SNU685_ENDOMETRIUM | 1
53 | SNU719_STOMACH | 0.969
54 | SNU761_LIVER | 0.855
55 | SNU840_OVARY | 1
56 | SNU869_BILIARY_TRACT | 1
57 | SNU886_LIVER | 0.853
58 | SNU899_UPPER_AERODIGESTIVE_TRACT | 0.668
59 | SNU1041_UPPER_AERODIGESTIVE_TRACT | 0.703
60 | SNU1066_UPPER_AERODIGESTIVE_TRACT | 1
61 | SNU1076_UPPER_AERODIGESTIVE_TRACT | 0.845
62 | SNU1077_ENDOMETRIUM | 0.846
63 | SNU1079_BILIARY_TRACT | 0.648
64 | SNU1105_CENTRAL_NERVOUS_SYSTEM | 0.577
65 | SNU1196_BILIARY_TRACT | 1
66 | SNU1214_UPPER_AERODIGESTIVE_TRACT | 0.739
67 | SNU1544_LARGE_INTESTINE | 0.806
68 | SNU2372_BREAST | 1
69 | SNUC2A_LARGE_INTESTINE | 0.514
70 | SNUC4_LARGE_INTESTINE | 0.595
71 | SQ1_LUNG | 1
72 | SSP25_BILIARY_TRACT | 0.801

Row | Test System | AUC of viability dose-response curve
73 | STM9101_SOFT_TISSUE | 1
74 | SUDHL1_HAEMATOPOIETIC_AND_LYMPHOID_TISSUE | 0.75
75 | SUDHL4_HAEMATOPOIETIC_AND_LYMPHOID_TISSUE | 0.958
76 | SUDHL8_HAEMATOPOIETIC_AND_LYMPHOID_TISSUE | 0.726
77 | SUIT2_PANCREAS | 1
78 | SUM149PT_BREAST | 0.789
79 | SUM159PT_BREAST | 0.732
80 | SUPB15_HAEMATOPOIETIC_AND_LYMPHOID_TISSUE | 0.185
81 | SUPT11_HAEMATOPOIETIC_AND_LYMPHOID_TISSUE | 1
82 | SUSA_TESTIS | 0.578
83 | SW13_ADRENAL_CORTEX | 0.602
84 | SW156_KIDNEY | 0.884
85 | SW480_LARGE_INTESTINE | 1
86 | SW579_THYROID | 0.197
87 | SW620_LARGE_INTESTINE | 0.559
88 | SW626_LARGE_INTESTINE | 0.387
89 | SW756_CERVIX | 0.437
90 | SW780_URINARY_TRACT | 1
91 | SW837_LARGE_INTESTINE | 0.72
92 | SW900_LUNG | 0.853
93 | SW948_LARGE_INTESTINE | 0.577
94 | SW954_CERVIX | 0.702
95 | SW1088_CENTRAL_NERVOUS_SYSTEM | 1
96 | SW1116_LARGE_INTESTINE | 1

Row | Test System | AUC of viability dose-response curve
97 | SW1271_LUNG | 0.564
98 | SW1353_BONE | 1
99 | SW1463_LARGE_INTESTINE | 1
100 | SW1573_LUNG | 1
101 | SW1710_URINARY_TRACT | 0.8
102 | SW1783_CENTRAL_NERVOUS_SYSTEM | 0.884
103 | SW1990_PANCREAS | 1
104 | T3M5_THYROID | 0.776
105 | T3M10_LUNG | 0.64
106 | T24_URINARY_TRACT | 1
107 | T47D_BREAST | 0.593
108 | T84_LARGE_INTESTINE | 1
109 | T98G_CENTRAL_NERVOUS_SYSTEM | 0.8
110 | TALL1_HAEMATOPOIETIC_AND_LYMPHOID_TISSUE | 0.762
111 | TANOUE_HAEMATOPOIETIC_AND_LYMPHOID_TISSUE | 1
112 | TASK1_CENTRAL_NERVOUS_SYSTEM | 0.342
113 | TC32_BONE | 0.859
114 | TC106_BONE | 1
115 | TC205_BONE | 0.543
116 | TCCPAN2_PANCREAS | 0.875
117 | TCCSUP_URINARY_TRACT | 1
118 | TE1_OESOPHAGUS | 0.884
119 | TE5_OESOPHAGUS | 0.998
120 | TE6_OESOPHAGUS | 0.914

Row | Test System | AUC of viability dose-response curve
121 | TE8_OESOPHAGUS | 0.646
122 | TE9_OESOPHAGUS | 1
123 | TE10_OESOPHAGUS | 0.501
124 | TE11_OESOPHAGUS | 0.986
125 | TE14_OESOPHAGUS | 0.86
126 | TE15_OESOPHAGUS | 0.364
127 | TE617T_SOFT_TISSUE | 0.851
128 | TEN_ENDOMETRIUM | 0.726
129 | TF1_HAEMATOPOIETIC_AND_LYMPHOID_TISSUE | 0.757
130 | TFK1_BILIARY_TRACT | 0.717
131 | TGBC1TKB_BILIARY_TRACT | 1
132 | TGBC18TKB_LARGE_INTESTINE | 0.938
133 | TGBC52TKB_BILIARY_TRACT | 0.745
134 | TGW_AUTONOMIC_GANGLIA | 0.673
135 | THP1_HAEMATOPOIETIC_AND_LYMPHOID_TISSUE | 1
136 | TM31_CENTRAL_NERVOUS_SYSTEM | 0.826
137 | TM87_SOFT_TISSUE | 0.367 ± 0.19
138 | TOLEDO_HAEMATOPOIETIC_AND_LYMPHOID_TISSUE | 0.416
139 | TOV21G_OVARY | 0.644
140 | TOV112D_OVARY | 0.724
141 | TT1TKB_LARGE_INTESTINE | 1
142 | TT2609C02_THYROID | 0.775
143 | TTC442_SOFT_TISSUE | 0.911
